For the test, the system named is mutant Huntington (HTT) protein. Briefly: HTT Mutant HTRF iPSC assay (mHTT protein lowering). The class given is cell-based. The settings on record: human iPSC derived from a HTT patient with a poly-Q49 mutation. On the technique in general: TR-FRET usually uses a lanthanide donor and a delayed reading to cut background.
As a reminder, the IC50 is the concentration that gives 50% inhibition. Higher therefore signals a need for much substance. Regarding `Cc1cn2nc(-c3cc(F)c4nc(C(=O)NC5CN(CC6CC6)C5)cn4c3)cc(C)c2n1` [Compound 339, N-[1-(cyclopropylmethyl)azetidin-3-yl]-6-(2,8-dimethylimidazo[1,2-b]pyridazin-6-yl)-8-fluoro-imidazo[1,2-a]pyridine-2-carboxamide], the IC50 was less than 100 nM.

The compound `Cc1cn2nc(-c3cc(F)c4nc(C5CCN(CC(F)F)CC5)cn4c3)cc(C)c2n1` [Compound 174, 6-(2-(1-(2,2-difluoroethyl)piperidin-4-yl)-8-fluoroimidazo[1,2-a]pyridin-6-yl)-2,8-dimethylimidazo[1,2-b]pyridazine] registered an IC50 of 100 to 1000 nM. In the case of `Cc1csc2cc(-c3cc(F)c4nc(C5CCNCC5)cn4c3)cnc12` [Compound 35, 6-(8-fluoro-2-(piperidin-4-yl)imidazo[1,2-a]pyridin-6-yl)-3-methylthieno[3,2-b]pyridine] it was 1000 to 9000 nM; in that of `Cc1cn2nc(-c3cc(F)c4nn(C5CCN(C)CC5)cc4c3)cc(C)c2n1` [Compound 364, 6-(7-fluoro-2-(1-methylpiperidin-4-yl)-2H-indazol-5-yl)-2,8-dimethylimidazo[1,2-b]pyridazine], 100 to 1000 nM. For `Cn1cc2cc(-c3cc(F)c4nc(C5CCNC5)cn4c3)ccc2n1` (stereo not drawn) [Compound 65, 5-(8-fluoro-2-(pyrrolidin-3-yl)imidazo[1,2-a]pyridin-6-yl)-2-methyl-2H-indazole] the value was 1000 to 9000 nM; for `Cc1cn2nc(-c3cc(F)c4nc(C5CCNCC5)cn4c3)cc(C3CC3)c2n1` [Compound 194, 8-cyclopropyl-6-(8-fluoro-2-(piperidin-4-yl)imidazo[1,2-a]pyridin-6-yl)-2-methylimidazo[1,2-b]pyridazine], less than 100 nM; for `Cc1cn2nc(-c3cc(F)c4nc(N5CCC(N(C)C)CC5)oc4c3)cc(C(F)F)c2n1` [Compound 495, 1-(6-(8-(difluoromethyl)-2-methylimidazo[1,2-b]pyridazin-6-yl)-4-fluorobenzo[d]oxazol-2-yl)-N,N-dimethylpiperidin-4-amine], less than 100 nM. For `Cc1cn2nc(-c3cc(F)c4nc(NC(=O)CC5CCCN5)cn4c3)cc(C)c2n1` (stereo not drawn) [Compound 273, N-(6-(2,8-dimethylimidazo[1,2-b]pyridazin-6-yl)-8-fluoroimidazo[1,2-a]pyridin-2-yl)-2-(pyrrolidin-2-yl)acetamide] the value was less than 100 nM; for `CCc1nc(C)cn2cc(-c3cc(F)c4nn(C5CCNCC5)nc4c3)cc12` [Compound 379, 6-(1-ethyl-3-methylpyrrolo[1,2-a]pyrazin-7-yl)-4-fluoro-2-(piperidin-4-yl)-2H-benzo[d][1,2,3]triazole], 100 to 1000 nM.

`Cc1cn2nc(-c3cc(F)c4nn(C5CCC6(CCNC6)C5)nc4c3)cc(C)c2n1` (stereo not drawn) [Compound 396, 6-(2,8-dimethylimidazo[1,2-b]pyridazin-6-yl)-4-fluoro-2-(2-azaspiro[4.4]nonan-7-yl)-2H-benzo[d][1,2,3]triazole] had a 50% inhibitory concentration (IC50) of 100 to 1000 nM. For `Cc1cc(-c2cc(F)c3nc([C@H]4[C@@H]5CN(C)C[C@@H]54)cn3c2)nn2cc(C(F)F)nc12` [Compound 228, 2-(difluoromethyl)-6-(8-fluoro-2-((1R,5S,6r)-3-methyl-3-azabicyclo[3.1.0]hexan-6-yl)imidazo[1,2-a]pyridin-6-yl)-8-methylimidazo[1,2-b]pyridazine] the value was 100 to 1000 nM; for `Cc1cn2nc(-c3cc(F)c4nc(NC(=O)C5(C)CN(C)C5)cn4c3)cc(C)c2n1` [Compound 261, N-(6-(2,8-dimethylimidazo[1,2-b]pyridazin-6-yl)-8-fluoroimidazo[1,2-a]pyridin-2-yl)-1,3-dimethylazetidine-3-carboxamide], less than 100 nM.

`Cc1cn2nc(-c3cc(F)c4nc(N5CCC(C)(CN(C)C)C5)oc4c3)cc(C)c2n1` (stereo not drawn) [Compound 474, 1-(1-(6-(2,8-dimethylimidazo[1,2-b]pyridazin-6-yl)-4-fluorobenzo[d]oxazol-2-yl)-3-methylpyrrolidin-3-yl)-N,N-dimethylmethanamine]: the 50% inhibitory concentration (IC50) lay within 100 to 1000 nM. For the compound `Cc1cn2nc(-c3ccc4nc(C5CCNCC5)cn4c3)cc(C)c2n1` [Compound 551, 2,8-dimethyl-6-[2-(4-piperidyl)imidazo[1,2-a]pyridin-6-yl]imidazo[1,2-b]pyridazine], the IC50 is less than 100 nM. In the case of `Cc1cn2nc(-c3cc(F)c4nc(N(C)C5CC(C)(C)NC(C)(C)C5)oc4c3)cc(C)c2n1` [Compound 467, 6-(2,8-dimethylimidazo[1,2-b]pyridazin-6-yl)-4-fluoro-N-methyl-N-(2,2,6,6-tetramethylpiperidin-4-yl)benzo[d]oxazol-2-amine] it was 100 to 1000 nM; in that of `Cc1cn2nc(-c3cc(F)c4nc([C@@H]5CCNC6(CC6)C5)cn4c3)cc(C)c2n1` (single isomer, unassigned) [Compound 179], 100 to 1000 nM; in that of `Cc1cn2nc(-c3cc(F)c4nc(CC5CNCCO5)nn4c3)cc(C)c2n1` (stereo not drawn) [Compound 446, 2-((6-(2,8-dimethylimidazo[1,2-b]pyridazin-6-yl)-8-fluoro-[1,2,4]triazolo[1,5-a]pyridin-2-yl)methyl)morpholine], 100 to 1000 nM. For the compound `Cc1cn2nc(-c3cc(F)c4nn(C5CC6(CNC6)C5)nc4c3)cc(C)c2n1` [Compound 385, 6-(2,8-dimethylimidazo[1,2-b]pyridazin-6-yl)-4-fluoro-2-(2-azaspiro[3.3]heptan-6-yl)-2H-benzo[d][1,2,3]triazole], the IC50 was 100 to 1000 nM. The compound `Cc1cn2nc(-c3cc(F)c4nc(NC(=O)C5CCNC6(CC6)C5)cn4c3)cc(C)c2n1` (stereo not drawn) [Compound 268, N-(6-(2,8-dimethylimidazo[1,2-b]pyridazin-6-yl)-8-fluoroimidazo[1,2-a]pyridin-2-yl)-4-azaspiro[2.5]octane-7-carboxamide] returned an IC50 of less than 100 nM. For `Cc1cn2cc(-c3cc(F)c4nc(C5CCNCC5)oc4c3)cc(F)c2n1` [Compound 156, 4-fluoro-6-(8-fluoro-2-methylimidazo[1,2-a]pyridin-6-yl)-2-(piperidin-4-yl)benzo[d]oxazole] the value was 1000 to 9000 nM; for `Cc1cn2nc(-c3cc(F)c4nc(NC(=O)C5CC(CN(C)C)C5)cn4c3)cc(C)c2n1` (stereo not drawn) [Compound 251, 3-((dimethylamino)methyl)-N-(6-(2,8-dimethylimidazo[1,2-b]pyridazin-6-yl)-8-fluoroimidazo[1,2-a]pyridin-2-yl)cyclobutane-1-carboxamide], 100 to 1000 nM. In the case of `Cc1cn2nc(-c3cc(F)c4nc(NC(=O)C5CCN(C)CC5)nn4c3)cc(C)c2n1` [Compound 327, N-(6-(2,8-dimethylimidazo[1,2-b]pyridazin-6-yl)-8-fluoro-[1,2,4]triazolo[1,5-a]pyridin-2-yl)-1-methylpiperidine-4-carboxamide] it was less than 100 nM. For `Cc1cn2nc(-c3cc(F)c4[nH]c(C5CCNC(C)C5)nc4c3)cc(C)c2n1` (stereo not drawn) [Compound 418, 6-(7-fluoro-2-(2-methylpiperidin-4-yl)-1H-benzo[d]imidazol-5-yl)-2,8-dimethylimidazo[1,2-b]pyridazine], the concentration for half-maximal inhibition (IC50) is 100 to 1000 nM. With `Cc1nc2ccc(-c3cc(F)c4nn(C5CCNCC5)cc4c3)nn2n1` [Compound 561, 6-(7-fluoro-2-(piperidin-4-yl)-2H-indazol-5-yl)-2-methyl-[1,2,4]triazolo[1,5-b]pyridazine], the IC50 was less than 100 nM. Turning to `CCc1cc(-c2cc(F)c3nc(C4CCNCC4)cn3c2)nn2cc(C)nc12` [Compound 197, 8-ethyl-6-(8-fluoro-2-(piperidin-4-yl)imidazo[1,2-a]pyridin-6-yl)-2-methylimidazo[1,2-b]pyridazine], the half-maximal inhibitory concentration (IC50) is less than 100 nM. `Cc1cn2nc(-c3cc(F)c4nc(C5CC6(CCNCC6)C5)cn4c3)cc(C)c2n1` [Compound 78, 6-(8-fluoro-2-(7-azaspiro[3.5]nonan-2-yl)imidazo[1,2-a]pyridin-6-yl)-2,8-dimethylimidazo[1,2-b]pyridazine] displayed an IC50 of less than 100 nM.

In the case of `Cc1cn2nc(-c3cc(F)c4nc(NC(=O)C56CNC(C5)C6)nn4c3)cc(C)c2n1` [Compound 320, N-(6-(2,8-dimethylimidazo[1,2-b]pyridazin-6-yl)-8-fluoro-[1,2,4]triazolo[1,5-a]pyridin-2-yl)-2-azabicyclo[2.1.1]hexane-4-carboxamide], the half-maximal inhibitory concentration (IC50) is 1000 to 9000 nM. For `Cc1cn2nc(-c3cc(F)c4nc(C[C@H]5C[C@@H](N)C5)nn4c3)cc(C)c2n1` [Compound 450, (1s,3s)-3-((6-(2,8-dimethylimidazo[1,2-b]pyridazin-6-yl)-8-fluoro-[1,2,4]triazolo[1,5-a]pyridin-2-yl)methyl)cyclobutan-1-amine] the value was 100 to 1000 nM; for `Cc1cn2cc(-c3cc(F)c4nc(C5CCNCC5)cn4c3)cc(C#N)c2n1` [Compound 42, 8′-fluoro-2-methyl-2′-(piperidin-4-yl)-[6,6′-biimidazo[1,2-a]pyridine]-8-carbonitrile], 1000 to 9000 nM. `CN1C(=O)Cc2ccc(-c3cc(F)c4nc(C5CCNCC5)cn4c3)cc21` [Compound 55, 6-(8-fluoro-2-(piperidin-4-yl)imidazo[1,2-a]pyridin-6-yl)-1-methylindolin-2-one]: the half-maximal inhibitory concentration (IC50) is 1000 to 9000 nM. In the case of `Cc1cn2nc(-c3cc(F)c4nc(N5CCC6(CCCN6C)CC5)oc4c3)cc(C)c2n1` [Compound 514, 6-(2,8-dimethylimidazo[1,2-b]pyridazin-6-yl)-4-fluoro-2-(1-methyl-1,8-diazaspiro[4.5]decan-8-yl)benzo[d]oxazole] it was less than 100 nM.

Turning to `Cc1cn2nc(-c3cc(F)c4nc(NC(=O)[C@H]5C[C@@H](N(C)C)C5)cn4c3)cc(C)c2n1` [Compound 289, (1s,3s)-3-(dimethylamino)-N-(6-(2,8-dimethylimidazo[1,2-b]pyridazin-6-yl)-8-fluoroimidazo[1,2-a]pyridin-2-yl)cyclobutane-1-carboxamide], the half-inhibitory concentration (IC50) is less than 100 nM. `CCN1CCC(c2cn3cc(-c4ccc5nn(C)cc5c4)cc(F)c3n2)CC1` [Compound 7, 5-(2-(1-ethylpiperidin-4-yl)-8-fluoroimidazo[1,2-a]pyridin-6-yl)-2-methyl-2H-indazole] gave an IC50 of 1000 to 9000 nM.

The values are drawn from US20250353841A1 (BIOGEN MA INC., priority 2022, published 2025).
